Where a name gives a salt, the structure may show the parent alone.
Legend:
PI3Kδ (p110δ/p85α) = molecular target: T1, PI3Kδ (p110δ/p85α) (Homo sapiens, UniProt O00329); experiment: PI3Kδ scintillation proximity assay; assay type: biochemical; conditions: 20 μM ATP, 4 nM PI3Kδ
T1 construct: purchased Millipore (Bedford, Mass.)
Procedure, shortened: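 p110δ/p85α (4 nM) phosphorylated 20 μM PIP2 with 20 μM ATP plus [γ-33P]ATP in 20 mM MOPS pH 6.7, 10 mM MgCl2, 5 mM DTT, 0.03% CHAPS, 0.5% DMSO, 210 min at room temperature. EDTA quench, WGA SPA bead capture, scintillation counting; IC50 from log-concentration fit.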

[1] = test system: Pfeiffer cell line (diffuse large B cell lymphoma); experiment: Pfeiffer cell proliferation assay; assay type: cell-based; conditions: Homo sapiens, Pfeiffer, Pfeiffer cells, 3-4 days plus 12 hours [3H]-thymidine incorporation
Experimental: Example C: Pfeiffer Cell Proliferation Assay
Pfeiffer cell line (diffuse large B cell lymphoma) was purchased from ATCC (Manassas, Va.) and maintained in the culture medium recommended (RPMI and 10% FBS). To measure the anti-proliferation activity of the compounds, the Pfeiffer cells were plated with the culture medium (2×10^3 cells/well/per 200 μl) into 96-well ultra-low binding plates (Corning, Corning, N.Y.), in the presence or absence of a concentration range of test compounds. After 3-4 days, [^3H]-thymidine (1 μCi/well) (PerkinElmer, Boston, Mass.) in PBS was then added to the cell culture for an additional 12 hours before the incorporated radioactivity was separated by filtration with water through GF/B filters (Packard Bioscience, Meridenj, Conn.) and measured by liquid scintillation counting with a TopCount (Packard Bioscience).

T1 sequence (O00329 whole entry, species assumed): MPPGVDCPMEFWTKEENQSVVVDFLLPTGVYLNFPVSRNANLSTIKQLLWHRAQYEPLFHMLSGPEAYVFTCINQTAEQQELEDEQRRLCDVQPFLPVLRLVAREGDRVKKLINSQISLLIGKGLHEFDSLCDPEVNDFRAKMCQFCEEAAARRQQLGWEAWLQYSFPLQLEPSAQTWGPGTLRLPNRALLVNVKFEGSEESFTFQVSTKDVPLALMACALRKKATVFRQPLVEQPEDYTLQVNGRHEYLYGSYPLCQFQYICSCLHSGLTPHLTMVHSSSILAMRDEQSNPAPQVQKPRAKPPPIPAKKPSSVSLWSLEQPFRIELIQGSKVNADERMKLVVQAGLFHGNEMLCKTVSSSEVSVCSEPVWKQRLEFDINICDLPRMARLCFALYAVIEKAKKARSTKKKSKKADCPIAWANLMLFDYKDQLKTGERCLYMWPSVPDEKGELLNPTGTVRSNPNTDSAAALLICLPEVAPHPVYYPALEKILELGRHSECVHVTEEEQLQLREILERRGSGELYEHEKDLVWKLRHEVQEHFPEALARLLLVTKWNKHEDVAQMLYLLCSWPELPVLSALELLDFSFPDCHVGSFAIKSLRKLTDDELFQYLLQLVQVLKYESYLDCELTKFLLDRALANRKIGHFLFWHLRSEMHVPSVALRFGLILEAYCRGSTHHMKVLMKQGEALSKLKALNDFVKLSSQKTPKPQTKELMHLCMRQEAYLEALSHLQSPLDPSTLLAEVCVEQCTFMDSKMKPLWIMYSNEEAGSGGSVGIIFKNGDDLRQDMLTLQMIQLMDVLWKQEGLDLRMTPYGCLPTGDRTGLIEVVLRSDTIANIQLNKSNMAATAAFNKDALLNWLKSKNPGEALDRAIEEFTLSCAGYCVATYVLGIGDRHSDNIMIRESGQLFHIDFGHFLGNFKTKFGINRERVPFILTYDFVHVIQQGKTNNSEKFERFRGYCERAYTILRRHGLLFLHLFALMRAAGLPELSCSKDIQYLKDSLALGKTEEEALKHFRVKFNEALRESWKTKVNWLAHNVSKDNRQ
T1 sequence (P27986 whole entry partner, species assumed): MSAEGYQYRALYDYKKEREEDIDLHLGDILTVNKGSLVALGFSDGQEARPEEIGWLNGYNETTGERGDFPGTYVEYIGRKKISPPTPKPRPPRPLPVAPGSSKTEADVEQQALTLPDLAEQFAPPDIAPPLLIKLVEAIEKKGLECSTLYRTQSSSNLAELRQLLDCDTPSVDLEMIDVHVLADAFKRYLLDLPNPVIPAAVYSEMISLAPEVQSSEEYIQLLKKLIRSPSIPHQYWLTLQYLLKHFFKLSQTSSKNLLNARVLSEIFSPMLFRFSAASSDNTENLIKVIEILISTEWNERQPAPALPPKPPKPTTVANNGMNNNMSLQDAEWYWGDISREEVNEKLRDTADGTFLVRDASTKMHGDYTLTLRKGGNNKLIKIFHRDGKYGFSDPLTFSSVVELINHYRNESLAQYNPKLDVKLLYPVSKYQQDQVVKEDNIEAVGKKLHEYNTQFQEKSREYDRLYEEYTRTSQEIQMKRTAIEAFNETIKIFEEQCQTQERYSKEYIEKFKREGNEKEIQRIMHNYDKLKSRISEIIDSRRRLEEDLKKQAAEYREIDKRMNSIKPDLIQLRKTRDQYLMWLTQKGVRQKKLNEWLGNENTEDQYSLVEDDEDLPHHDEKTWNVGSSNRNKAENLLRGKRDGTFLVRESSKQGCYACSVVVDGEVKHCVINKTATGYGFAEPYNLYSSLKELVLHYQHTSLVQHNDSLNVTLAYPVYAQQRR

`COc1ncc(-c2c(C)c(Cl)cc(C(C)Nc3ncnc4[nH]cnc34)c2-c2ccccc2)cn1` (centres unmarked) [Example 25, N-{1-[4-chloro-6-(2-methoxypyrimidin-5-yl)-5-methylbiphenyl-2-yl]ethyl}-9H-purin-6-amine] gave an IC50 (PI3Kδ (p110δ/p85α)) of under 50 nM and an IC50 [1] of under 100 nM.

`COc1c(C(C)Nc2ncnc3[nH]cnc23)cc(Cl)c(C)c1-c1ccc(-n2cccn2)cc1` (centres unmarked) [Example 43, N-{1-[5-chloro-2-methoxy-6-methyl-4′-(1H-pyrazol-1-yl)biphenyl-3-yl]ethyl}-9H-purin-6-amine] showed an IC50 (PI3Kδ (p110δ/p85α)) of under 50 nM and an IC50 [1] of 100 to 500 nM.

Molecule `COc1c(C(C)Nc2ncnc3[nH]cnc23)cc(Cl)c(C)c1-c1ccc(C(F)(F)F)cc1` (centres unmarked) [Example 38, N-{1-[5-chloro-2-methoxy-6-methyl-4′-(trifluoromethyl)biphenyl-3-yl]ethyl}-9H-purin-6-amine] has an IC50 (PI3Kδ (p110δ/p85α)) of 100 to 250 nM and an IC50 [1] of over 1000 nM.

`COc1c(C(C)Nc2ncnc3[nH]cnc23)cc(Cl)c(C)c1C1CCN(C)CC1` (centres unmarked) [Example 176, N-{1-[5-Chloro-2-methoxy-4-methyl-3-(1-methylpiperidin-4-yl)phenyl]ethyl}-9H-purin-6-amine] showed an IC50 (PI3Kδ (p110δ/p85α)) of under 50 nM and an IC50 [1] of under 100 nM.

With `COc1c(C(C)Nc2ncnc3[nH]cnc23)cc(Cl)c(C)c1-c1cccc(F)c1` (centres unmarked) [Example 28, N-[1-(5-chloro-3′-fluoro-2-methoxy-6-methylbiphenyl-3-yl)ethyl]-9H-purin-6-amine] the IC50 (PI3Kδ (p110δ/p85α)) was under 50 nM and the IC50 [1] was 100 to 500 nM.

`Cc1c(Cl)cc(C(C)Nc2ncnc3[nH]cnc23)c(-c2cccc(F)c2)c1C(N)=O` (centres unmarked) [Example 2, 4-Chloro-3′-fluoro-3-methyl-6-[1-(9H-purin-6-ylamino)ethyl]biphenyl-2-carboxamide] showed an IC50 (PI3Kδ (p110δ/p85α)) of under 50 nM and an IC50 [1] of under 100 nM.

`COc1c(C(C)Nc2ncnc3[nH]cnc23)cc(Cl)c(Cl)c1C1CN(C(C)=O)C1` (centres unmarked) [Example 195, N-{1-[3-(1-Acetylazetidin-3-yl)-4,5-dichloro-2-methoxyphenyl]ethyl}-9H-purin-6-amine] gave an IC50 (PI3Kδ (p110δ/p85α)) of under 50 nM and an IC50 [1] of under 100 nM.

`COc1c(C(C)Nc2ncnc3[nH]cnc23)cc(Cl)c(C)c1-c1ccc(F)c(C(F)(F)F)c1` (centres unmarked) [Example 93, N-{1-[5-chloro-4′-fluoro-2-methoxy-6-methyl-3′-(trifluoromethyl)biphenyl-3-yl]ethyl}-9H-purin-6-amine] gave an IC50 (PI3Kδ (p110δ/p85α)) of 50 to 100 nM and an IC50 [1] of over 1000 nM.

Work on `COc1c(C(C)Nc2ncnc3[nH]cnc23)cc(Cl)c(C)c1-c1ccc(N2CCOCC2)nc1` (centres unmarked) [Example 48, N-{1-[5-chloro-2-methoxy-4-methyl-3-(6-morpholin-4-ylpyridin-3-yl)phenyl]ethyl}-9H-purin-6-amine] yielded an IC50 (PI3Kδ (p110δ/p85α)) of under 50 nM and an IC50 [1] of under 100 nM.

`COc1c(C(C)Nc2ncnc3[nH]cnc23)cc(Cl)c(C)c1-c1ccc(F)nc1` (centres unmarked) [Example 51, N-{1-[5-chloro-3-(6-fluoropyridin-3-yl)-2-methoxy-4-methylphenyl]ethyl}-9H-purin-6-amine] was tested, and the IC50 (PI3Kδ (p110δ/p85α)) was under 50 nM and the IC50 [1] was under 100 nM.

In the case of `COc1cncc(-c2c(C)c(Cl)cc(C(C)Nc3ncnc4[nH]cnc34)c2OC)c1` (centres unmarked) [Example 34, N-{1-[5-chloro-2-methoxy-3-(5-methoxypyridin-3-yl)-4-methylphenyl]ethyl}-9H-purin-6-amine], the IC50 (PI3Kδ (p110δ/p85α)) is reported as under 50 nM and the IC50 [1] is reported as under 100 nM.

`COCc1cccc(-c2c(C)c(Cl)cc(C(C)Nc3ncnc4[nH]cnc34)c2OC)c1` (centres unmarked) [Example 44, N-{1-[5-chloro-2-methoxy-3′-(methoxymethyl)-6-methylbiphenyl-3-yl]ethyl}-9H-purin-6-amine] showed an IC50 (PI3Kδ (p110δ/p85α)) of under 50 nM and an IC50 [1] of 100 to 500 nM.

`COc1c(C(C)Nc2ncnc3[nH]cnc23)cc(Cl)c(C)c1N1CCCC1=O` (centres unmarked) [Example 18, 1-{3-Chloro-6-methoxy-2-methyl-5-[1-(9H-purin-6-ylamino)ethyl]phenyl}pyrrolidin-2-one] was tested, and the IC50 (PI3Kδ (p110δ/p85α)) was 250 to 500 nM and the IC50 [1] was 100 to 500 nM.

`CCOc1ccc(-c2c(C)c(Cl)cc(C(C)Nc3ncnc4[nH]cnc34)c2OC)cc1F` (centres unmarked) [Example 39, N-[1-(5-chloro-4′-ethoxy-3′-fluoro-2-methoxy-6-methylbiphenyl-3-yl)ethyl]-9H-purin-6-amine] gave an IC50 (PI3Kδ (p110δ/p85α)) of 100 to 250 nM and an IC50 [1] of over 1000 nM.

`COc1c(C(C)Nc2ncnc3[nH]cnc23)cc(Cl)c(C)c1-c1cc(F)cc(F)c1` (centres unmarked) [Example 29, N-[1-(5-chloro-3′,5′-difluoro-2-methoxy-6-methylbiphenyl-3-yl)ethyl]-9H-purin-6-amine] gave an IC50 (PI3Kδ (p110δ/p85α)) of under 50 nM and an IC50 [1] of 100 to 500 nM.

`COc1c(C(C)Nc2ncnc3[nH]cnc23)cc(Cl)c(C)c1N1CCC(O)CC1` (centres unmarked) [Example 60, 1-{3-Chloro-6-methoxy-2-methyl-5-[1-(9H-purin-6-ylamino)ethyl]phenyl}piperidin-4-ol] gave an IC50 (PI3Kδ (p110δ/p85α)) of under 50 nM and an IC50 [1] of over 1000 nM.

`CC(=O)Nc1ccc(-c2c(C)c(Cl)cc(C(C)Nc3ncnc4[nH]cnc34)c2-c2cc(F)cc(F)c2)cc1` (centres unmarked) [Example 83, N-{5′-chloro-3″,5″-difluoro-6′-methyl-3′-[1-(9H-purin-6-ylamino)ethyl]-1,1′:2′,1″-terphenyl-4-yl}acetamide] was tested, and the IC50 (PI3Kδ (p110δ/p85α)) was under 50 nM and the IC50 [1] was under 100 nM.

In the case of `COc1c(C(C)Nc2ncnc3[nH]cnc23)cc(Cl)c(C)c1-c1cccc(N(C)C)c1` (centres unmarked) [Example 100, N-{1-[5-chloro-3′-(dimethylamino)-2-methoxy-6-methylbiphenyl-3-yl]ethyl}-9H-purin-6-amine], the IC50 (PI3Kδ (p110δ/p85α)) is reported as under 50 nM and the IC50 [1] is reported as over 1000 nM.

`COc1c(C(C)Nc2ncnc3[nH]cnc23)cc(Cl)c(C)c1-c1cc(C(=O)N(C)C)cnn1` (centres unmarked) [Example 178, 6-{3-chloro-6-methoxy-2-methyl-5-[1-(9H-purin-6-ylamino)ethyl]phenyl}-N,N-dimethylpyridazine-4-carboxamide bis(2,2,2-trifluoroacetate)] gave an IC50 (PI3Kδ (p110δ/p85α)) of under 50 nM and an IC50 [1] of under 100 nM.

`COc1c(C(C)Nc2ncnc3[nH]cnc23)cc(Cl)c(C)c1-c1ccc(F)c(Cl)c1` (centres unmarked) [Example 89, N-[1-(3′,5-dichloro-4′-fluoro-2-methoxy-6-methylbiphenyl-3-yl)ethyl]-9H-purin-6-amine] showed an IC50 (PI3Kδ (p110δ/p85α)) of 50 to 100 nM and an IC50 [1] of 500 to 1000 nM.

With `Cc1c(Cl)cc(C(C)Nc2ncnc3[nH]cnc23)c(-c2ccccc2)c1-c1ccc(C#N)cc1` (centres unmarked) [Example 24, 5′-chloro-6′-methyl-3′-[1-(9H-purin-6-ylamino)ethyl]-1,1′:2′,1″-terphenyl-4-carbonitrile] the IC50 (PI3Kδ (p110δ/p85α)) was under 50 nM and the IC50 [1] was 100 to 500 nM.

`COc1c(C(C)Nc2ncnc3[nH]cnc23)cc(Cl)c(C)c1-c1ccc(OC2CCOCC2)nc1` (centres unmarked) [Example 45, N-(1-{5-chloro-2-methoxy-4-methyl-3-[6-(tetrahydro-2H-pyran-4-yloxy)pyridin-3-yl]phenyl}ethyl)-9H-purin-6-amine] showed an IC50 (PI3Kδ (p110δ/p85α)) of under 50 nM and an IC50 [1] of 100 to 500 nM.

Work on `COc1c(C(C)Nc2ncnc3[nH]cnc23)cc(Cl)c(C)c1-c1ccnc(Cl)c1` (centres unmarked) [Example 98, N-{1-[5-chloro-3-(2-chloropyridin-4-yl)-2-methoxy-4-methylphenyl]ethyl}-9H-purin-6-amine] yielded an IC50 (PI3Kδ (p110δ/p85α)) of under 50 nM and an IC50 [1] of under 100 nM.

`Cc1noc(C)c1-c1c(C)c(Cl)cc(C(C)Nc2ncnc3[nH]cnc23)c1-c1cccc(F)c1` (centres unmarked) [Example 71, N-{1-[4-chloro-6-(3,5-dimethylisoxazol-4-yl)-3′-fluoro-5-methylbiphenyl-2-yl]ethyl}-9H-purin-6-amine trifluoroacetate] was tested, and the IC50 (PI3Kδ (p110δ/p85α)) was under 50 nM and the IC50 [1] was under 100 nM.

For `CC(=O)Nc1ccc(-c2c(C)c(Cl)cc(C(C)Nc3ncnc4[nH]cnc34)c2-c2ccccc2)cc1` (centres unmarked) [Example 26, N-{5′-chloro-6′-methyl-3′-[1-(9H-purin-6-ylamino)ethyl]-1,1′:2′,1″-terphenyl-4-yl}acetamide], the IC50 (PI3Kδ (p110δ/p85α)) was under 50 nM and the IC50 [1] was under 100 nM.

For `COc1c(C(C)Nc2ncnc3[nH]cnc23)cc(Cl)c(C)c1-c1cc(Cl)cc(Cl)c1` (centres unmarked) [Example 47, N-[1-(3′,5,5′-trichloro-2-methoxy-6-methylbiphenyl-3-yl)ethyl]-9H-purin-6-amine], the IC50 (PI3Kδ (p110δ/p85α)) was 100 to 250 nM and the IC50 [1] was over 1000 nM.

For `Cc1n[nH]c(C)c1-c1c(C)c(Cl)cc(C(C)Nc2ncnc3[nH]cnc23)c1-c1cc(F)cc(F)c1` (centres unmarked) [Example 107, N-{1-[4-chloro-6-(3,5-dimethyl-1H-pyrazol-4-yl)-3′,5′-difluoro-5-methylbiphenyl-2-yl]ethyl}-9H-purin-6-amine], the IC50 (PI3Kδ (p110δ/p85α)) was under 50 nM and the IC50 [1] was 100 to 500 nM.

In the case of `COc1cc(-c2c(C)c(Cl)cc(C(C)Nc3ncnc4[nH]cnc34)c2OC)ccc1F` (centres unmarked) [Example 95, N-[1-(5-chloro-4′-fluoro-2,3′-dimethoxy-6-methylbiphenyl-3-yl)ethyl]-9H-purin-6-amine], the IC50 (PI3Kδ (p110δ/p85α)) is reported as under 50 nM and the IC50 [1] is reported as 500 to 1000 nM.

For `Cc1c(Cl)cc(C(C)Nc2ncnc3[nH]cnc23)c(-c2ccccc2)c1-c1cc(F)nc(F)c1` (centres unmarked) [Example 13, N-{1-[4-chloro-6-(2,6-difluoropyridin-4-yl)-5-methylbiphenyl-2-yl]ethyl}-9H-purin-6-amine], the IC50 (PI3Kδ (p110δ/p85α)) was under 50 nM and the IC50 [1] was under 100 nM.

`CNC(=O)c1ccc(-c2c(C)c(Cl)cc(C(C)Nc3ncnc4[nH]cnc34)c2OC)cc1Cl` (centres unmarked) [Example 37, 3,3′-dichloro-6′-methoxy-N,2′-dimethyl-5′-[1-(9H-purin-6-ylamino)ethyl]biphenyl-4-carboxamide] was tested, and the IC50 (PI3Kδ (p110δ/p85α)) was under 50 nM and the IC50 [1] was under 100 nM.

For `Cc1nn(C)c(C)c1-c1c(C)c(Cl)cc(C(C)Nc2ncnc3[nH]cnc23)c1-c1cccc(F)c1` (centres unmarked) [Example 75, N-{1-[4-chloro-3′-fluoro-5-methyl-6-(1,3,5-trimethyl-1H-pyrazol-4-yl)biphenyl-2-yl]ethyl}-9H-purin-6-amine], the IC50 (PI3Kδ (p110δ/p85α)) was under 50 nM and the IC50 [1] was under 100 nM.
